Assay results reported in ChEMBL document CHEMBL1759926, “Exploring new near-infrared fluorescent disulfide-based cyclic RGD peptide analogs for potential integrin-targeted optical imaging” (Bioorg Med Chem Lett, 2011).
Bridge positions count the residues as written; N and C are the ends. Peptide text beside a SMILES is read from it. * marks the point of attachment. Cypate = CC1(C)C(/C=C/C=C/C=C/C=C2/N(CCC(=O)*)c3ccc4ccccc4c3C2(C)C)=[N+](CCC(=O)O)c2ccc3ccccc3c21

Each compound was assayed against Integrin alpha-V/beta-3 (Homo sapiens, UniProt P05106+P06756) (assay: Displacement of [125I]echistatin from human integrin […] expressed in human A549 cells by binding assay). Conditions: not given; call rule not given here.
Assay type: cell-based

Integrin alpha-V/beta-3, sequence (P05106 27-788 limits assumed): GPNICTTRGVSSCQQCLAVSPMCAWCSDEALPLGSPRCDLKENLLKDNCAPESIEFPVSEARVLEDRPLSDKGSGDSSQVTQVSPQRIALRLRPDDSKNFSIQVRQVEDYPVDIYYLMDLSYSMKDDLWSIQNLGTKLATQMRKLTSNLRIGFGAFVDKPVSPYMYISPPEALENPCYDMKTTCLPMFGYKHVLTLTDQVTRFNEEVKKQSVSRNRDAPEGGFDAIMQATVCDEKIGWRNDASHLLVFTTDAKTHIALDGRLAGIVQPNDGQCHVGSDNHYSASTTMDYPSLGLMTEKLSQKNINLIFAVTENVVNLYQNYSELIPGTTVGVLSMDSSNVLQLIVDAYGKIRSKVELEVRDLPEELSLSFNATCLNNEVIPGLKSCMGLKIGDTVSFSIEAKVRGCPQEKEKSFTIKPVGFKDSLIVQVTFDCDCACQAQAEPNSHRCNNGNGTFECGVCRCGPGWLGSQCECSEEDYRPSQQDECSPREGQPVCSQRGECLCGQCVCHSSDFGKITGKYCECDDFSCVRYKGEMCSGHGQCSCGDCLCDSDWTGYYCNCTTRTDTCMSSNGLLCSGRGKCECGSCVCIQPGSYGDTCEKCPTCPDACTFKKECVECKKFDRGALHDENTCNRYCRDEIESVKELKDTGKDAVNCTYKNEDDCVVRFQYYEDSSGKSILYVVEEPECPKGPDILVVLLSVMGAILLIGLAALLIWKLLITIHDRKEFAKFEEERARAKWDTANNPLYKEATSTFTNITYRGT
Integrin alpha-V/beta-3, sequence (P06756 31-889 limits assumed): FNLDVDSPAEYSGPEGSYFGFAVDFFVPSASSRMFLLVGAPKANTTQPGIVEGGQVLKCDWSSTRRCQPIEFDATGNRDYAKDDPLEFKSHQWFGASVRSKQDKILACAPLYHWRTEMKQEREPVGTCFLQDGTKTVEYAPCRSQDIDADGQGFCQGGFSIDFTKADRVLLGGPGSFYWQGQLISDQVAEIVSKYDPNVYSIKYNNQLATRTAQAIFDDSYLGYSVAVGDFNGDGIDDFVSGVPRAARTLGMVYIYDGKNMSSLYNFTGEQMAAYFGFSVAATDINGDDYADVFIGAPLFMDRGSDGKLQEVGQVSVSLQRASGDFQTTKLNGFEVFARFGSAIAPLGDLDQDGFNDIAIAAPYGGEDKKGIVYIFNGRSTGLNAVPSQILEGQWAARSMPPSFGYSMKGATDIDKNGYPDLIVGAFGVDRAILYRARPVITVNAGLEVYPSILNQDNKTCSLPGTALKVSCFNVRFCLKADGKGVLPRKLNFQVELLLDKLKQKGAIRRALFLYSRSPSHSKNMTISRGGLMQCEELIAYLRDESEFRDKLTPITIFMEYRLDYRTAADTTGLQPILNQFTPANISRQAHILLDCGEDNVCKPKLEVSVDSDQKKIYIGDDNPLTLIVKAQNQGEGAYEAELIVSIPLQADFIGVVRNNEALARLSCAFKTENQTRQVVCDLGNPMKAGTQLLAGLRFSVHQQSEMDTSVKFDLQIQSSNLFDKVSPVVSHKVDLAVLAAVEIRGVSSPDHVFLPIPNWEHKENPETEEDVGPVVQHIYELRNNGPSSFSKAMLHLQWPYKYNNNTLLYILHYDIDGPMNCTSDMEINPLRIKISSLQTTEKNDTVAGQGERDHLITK
Integrin alpha-V/beta-3, sequence (P06756 891-1048 limits assumed): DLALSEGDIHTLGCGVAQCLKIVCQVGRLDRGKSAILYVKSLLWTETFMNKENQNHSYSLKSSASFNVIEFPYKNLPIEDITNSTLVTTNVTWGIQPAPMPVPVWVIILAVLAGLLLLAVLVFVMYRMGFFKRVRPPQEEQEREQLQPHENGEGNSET

IC50 | SMILES
0.72 µM | CC1(C)C(/C=C/C=C/C=C/C=C2/N(CCC(=O)NCCCC[C@@H]3NC(=O)[C@@H](Cc4ccccc4)NC(=O)[C@H](CC(=O)O)NC(=O)CNC(=O)[C@H](CCCNC(=N)N)NC3=O)c3ccc4ccccc4c3C2(C)C)=[N+](CCC(=O)O)c2ccc3ccccc3c21
> 10 µM | CC1(C)C(/C=C/C=C/C=C/C=C2/N(CCC(=O)N[C@H]3CSSC[C@@H](C(N)=O)NC(=O)[C@H](CC(=O)O)NC(=O)[C@@H]4CCCN4C(=O)[C@H](CCCNC(=N)N)NC3=O)c3ccc4ccccc4c3C2(C)C)=[N+](CCC(=O)O)c2ccc3ccccc3c21 (Cypate-CRPDC-NH2; disulfide 1-5)
> 10 µM | CC(C)[C@@H]1NC(=O)[C@H](CCCNC(=N)N)NC(=O)[C@@H](NC(=O)CCN2/C(=C/C=C/C=C/C=C/C3=[N+](CCC(=O)O)c4ccc5ccccc5c4C3(C)C)C(C)(C)c3c2ccc2ccccc32)CSSC[C@@H](C(N)=O)NC(=O)[C@H](CC(=O)O)NC1=O (Cypate-CRVDC-NH2; disulfide 1-5)
> 10 µM | CC1(C)C(/C=C/C=C/C=C/C=C2/N(CCC(=O)N[C@H]3CSSC[C@@H](C(N)=O)NC(=O)[C@H](CC(=O)O)NC(=O)[C@H](Cc4ccc(O)cc4)NC(=O)[C@H](CCCNC(=N)N)NC3=O)c3ccc4ccccc4c3C2(C)C)=[N+](CCC(=O)O)c2ccc3ccccc3c21 (Cypate-CRYDC-NH2; disulfide 1-5)

The compounds below were run on A549 (assay: Drug uptake in human A549 cells overexpressing […] integrin at 1 uM after 4 to 24 hrs by fluorescence microscopy). Conditions: a549, 1 µM.
Assay type: ADME, cell-based

Drug uptake | SMILES
Active | CC1(C)C(/C=C/C=C/C=C/C=C2/N(CCC(=O)N[C@H]3CSSC[C@@H](C(N)=O)NC(=O)[C@H](CC(=O)O)NC(=O)CNC(=O)[C@H](CCCNC(=N)N)NC3=O)c3ccc4ccccc4c3C2(C)C)=[N+](CCC(=O)O)c2ccc3ccccc3c21
Active | CC1(C)C(/C=C/C=C/C=C/C=C2/N(CCC(=O)NCCCC[C@@H]3NC(=O)[C@@H](Cc4ccccc4)NC(=O)[C@H](CC(=O)O)NC(=O)CNC(=O)[C@H](CCCNC(=N)N)NC3=O)c3ccc4ccccc4c3C2(C)C)=[N+](CCC(=O)O)c2ccc3ccccc3c21
